In ChEMBL document CHEMBL5226392, “Anti-inflammatory Quinoline Alkaloids from the Roots of Waltheria indica” (J Nat Prod, 2023):
Active and inactive are the calls of the source. No cut-off for these calls is given here.

Columns and labels:
[1] = Antiinflammatory activity in human 293/NFkB-Luc cells assessed as inhibition of TNF-alpha induced NFkaapaB activity at 50 uM preincubated for 15 mins followed by TNF-alpha induction and measured after 6 hrs by luminescence based assay relative to control; assay type: functional; details: 6.25 h, time 375 min
RAW264.7 [2] = test: Inhibition of NO production in LPS-stimulated mouse RAW264.7 cells at 50 uM preincubated for 15 mins followed by LPS stimulation and measured after 20 hrs by Griess reagent based assay relative to control; assay type: functional; details: RAW264.7, 20.25 h, time 1215 min
[3] = Cytotoxicity against TNF-alpha induced human 293/NFkB-Luc cells assessed as increase in cell survival at 50 uM preincubated for 15 mins followed by TNF-alpha induction and measured after 6 hrs by MTT assay relative to control; assay type: toxicity, cell-based; details: TNF-alpha induced 293/NFkB-Luc cells, time 375 min, read-out: Activity
[4] = Cytotoxicity against LPS-stimulated mouse RAW264.7 cells assessed as cell survival at 50 uM preincubated for 15 mins followed by LPS stimulation and measured after 20 hrs by CCK-8 assay relative to control; assay type: toxicity, cell-based; details: LPS-stimulated RAW264.7 cells, time 1215 min, read-out: Activity
[5] = Cytotoxicity against LPS-stimulated mouse RAW264.7 cells assessed as cell growth inhibition preincubated for 15 mins followed by LPS stimulation and measured after 20 hrs by CCK-8 assay; assay type: toxicity, cell-based; details: LPS-stimulated RAW264.7 cells
RAW264.7 [6] = test: Inhibition of NO production in LPS-stimulated mouse RAW264.7 cells preincubated for 15 mins followed by LPS stimulation and measured after 20 hrs by Griess reagent based assay; assay type: functional, cell-based
[7] = Antiinflammatory activity in human 293/NFkB-Luc cells assessed as inhibition of TNF-alpha induced NFkaapaB activity preincubated for 15 mins followed by TNF-alpha induction and measured after 6 hrs by luminescence based assay; assay type: functional, cell-based
RAW264.7 [8] = test: Antiinflammatory activity in mouse RAW264.7 cells assessed as inhibition of LPS-induced iNOS protein expression at 30 uM preincubated for 15 mins followed by LPS stimulation and measured after 24 hrs by Western blot analysis; assay type: functional, cell-based; details: time 1215.0 min

Row | Compound | IC50 (RAW264.7 [6]) [µM] | IC50 [7] [µM] | inhibition at 50 µM [1] [%] | inhibition at 50 µM (RAW264.7 [2]) [%] | viability at 6 h, 50 µM [3] [%] | viability at 20 h, 50 µM [4] [%] | IC50 at 20 h [5] [µM] | Activity (RAW264.7 [8])
1 | CC[C@@H](C)[C@@H]1NC(=O)[C@@H](NC(=O)[C@H](Cc2ccccc2)N(C)C)[C@@H](c2ccccc2)Oc2ccc(cc2)/C=C\NC1=O |  |  | < 50 | < 50 | 86.4 | 94.8 |  | 
2 | CCCCCCCC[C@H]1CC[C@@H](OC)c2[nH]c(C)c(OC)c(=O)c21 | 42.9 |  | < 50 | 60.3 | 90.3 | 51.4 |  | 
3 | COc1ccccc1[C@]1(O)c2ccc3[nH]c(C)c(OC)c(=O)c3c2[C@@H]2CC[C@H]1O2 |  |  | < 50 | < 50 | 86.7 | 100 |  | 
4 | COc1c(C)[nH]c2c(c1=O)[C@@H](CCCCCc1ccccc1)CC[C@H]2OC |  |  | < 50 | < 50 | 69.9 | 57.2 |  | 
5 | COc1c(C)[nH]c2ccc3c(c2c1=O)[C@@H]1CCC[C@@]3(c2ccccc2)O1 | 35.7 | 7.1 | 78 | 58.7 | 89 | 100 |  | 
6 | COc1ccc(OC)c([C@@]2(O)c3ccc4[nH]c(C)c(OC)c(=O)c4c3[C@@H]3CC[C@H]2O3)c1 |  |  | < 50 | < 50 | 74.5 | 100 |  | 
7 | COc1c(C)[nH]c2c(c1=O)[C@@H](CCCCCc1ccc(O)cc1)CCC2=O |  |  | < 50 | < 50 | 80.5 | 89.3 |  | 
8 | COc1c(C)[nH]c2c(O)ccc(CCCCCc3ccccc3)c2c1=O |  |  | < 50 | < 50 | 83.5 | 59.3 |  | 
9 | CNC(=N)NCCC[C@H](N)C(=O)O | 22.7 |  |  |  |  |  |  | 
10 | COc1c(C)[nH]c2c(c1=O)[C@@H](CCCCC(=O)c1ccccc1)CCC2=O |  |  | < 50 | < 50 | 82.2 | 74.5 |  | 
11 | COc1c(C)[nH]c2c(OC)ccc(C(=O)CCCCc3ccccc3)c2c1=O |  |  | < 50 | < 50 | 76.8 | 82.8 |  | 
12 | CCCCCCCC(=O)c1ccc(OC)c2[nH]c(C)c(OC)c(=O)c12 |  |  | < 50 | < 50 | 86.7 | 69.9 |  | 
13 | CCCCCCCCc1ccc(O)c2[nH]c(C)c(OC)c(=O)c12 |  |  | < 50 | < 50 | 83.6 | 70.2 |  | 

Second part, led by results:

Row | IC50 (RAW264.7 [6]) [µM] | IC50 [7] [µM] | Compound | inhibition at 50 µM [1] [%] | inhibition at 50 µM (RAW264.7 [2]) [%] | viability at 6 h, 50 µM [3] [%] | viability at 20 h, 50 µM [4] [%] | IC50 at 20 h [5] [µM] | Activity (RAW264.7 [8])
14 | 11.4 | 10.2 | COc1c(C)[nH]c2cccc(CCCCCc3ccccc3)c2c1=O | 77.5 | 97.9 | 76.7 | < 50 | 33.3 | 
15 | 16.1 |  | CCCCCCCC[C@H]1CCC(=O)c2[nH]c(C)c(OC)c(=O)c21 | < 50 | 97.4 | 85.8 | 63.5 |  | Active
16 |  | 8.9 | COc1c(C)n(OC)c2c(c1=O)[C@@H](CCCCC(=O)c1ccccc1)CCC2 | 97.9 | < 50 | 82.7 | 73.2 |  | 
17 |  | 9.7 | Cc1ccc(S(=O)(=O)/C=C/C#N)cc1 |  |  |  |  |  | 
18 | 40.7 |  | COc1c(C)[nH]c2c(c1=O)[C@@H](CCCCCc1ccccc1)CCC2=O | < 50 | 59.7 | 88.4 | 67.5 |  | 
19 | 11 | 12.1 | COc1c(C)n(OC)c2c(c1=O)[C@@H](CCCCCc1ccccc1)CCC2 | 88.6 | 99.7 | 89 | < 50 | 32.2 | 
20 | 43 |  | CC[C@H](C)[C@@H]1NC(=O)[C@H](NC(=O)/C=C/c2ccccc2)[C@H](c2ccccc2)Oc2ccc(cc2)/C=C\NC1=O | < 50 | 58.5 | 100 | 100 |  | 
21 | 18.8 | 10.3 | COc1c(C)n(OC)c2c(c1=O)[C@@H](CCCCCc1ccc(O)cc1)CCC2 | 85.4 | 94.5 | 85.3 | < 50 | 25.9 | 
22 | 25.4 |  | CCCCCCCC[C@H]1CCC(=O)c2[nH]c(CO)c(OC)c(=O)c21 | < 50 | 89.9 | 93.1 | 50.9 |  | 
23 | 20.8 |  | CCCCCCCC[C@H]1CCCc2[nH]c(C)c(OC)c(=O)c21 | < 50 | 99.9 | 90.8 | 67.6 |  | 
24 | 25.8 |  | CCCCCCC[C@H](O)c1ccc(OC)c2[nH]c(C)c(OC)c(=O)c12 | < 50 | 91.7 | 75.6 | 64.7 |  | 
25 | 12.8 | 10.1 | COc1c(C)[nH]c2c(c1=O)[C@H](CCCCCc1ccccc1)CCC2 | 81.6 | 99.1 | 91.8 | 61 |  | 
26 | 32 |  | O=C1N/C=C\c2ccc(cc2)O[C@@H](c2ccccc2)[C@H](NC(=O)[C@@H]2CCCN2C(=O)/C=C/c2ccccc2)C(=O)N[C@H]1Cc1ccccc1 | < 50 | 63.7 | 76.6 | 100 |  | 
27 | 38.8 | 7.2 | COc1ccccc1[C@@H]1c2ccc3[nH]c(C)c(OC)c(=O)c3c2[C@@H]2CC[C@H]1O2 | 84.5 | 56.3 | 79.6 | 100 |  | 
28 | 25.8 |  | CCCCCCC[C@@H](O)c1ccc(OC)c2[nH]c(C)c(OC)c(=O)c12 | < 50 | 86.5 | 72.6 | 84.9 |  | 
29 | 35.6 |  | COc1c(C)[nH]c2c(OC)ccc(CCCCCCC(C)=O)c2c1=O | < 50 | 63.8 | 75.8 | 86.5 |  | 
30 | 31 | 11.9 | COc1c(CO)[nH]c2c(c1=O)[C@@H](CCCCCc1ccccc1)CCC2=O | 71.1 | 79.1 | 100 | 50.8 |  | 
